Test results: PubChem BioAssay AID977613 (Broad Institute, 2014)
Activity calls are given as the source filed them. How the calls were made is not given here.

tested on: Broad 7084-01 inhibitor HTS, set 2; assay: single-concentration hits, screen 7084 set 2 (AID 977613);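 further: host cells are infected with parasite promastigotes that become internalized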

| SMILES | active concentration |
| --- | --- |
| COc1cccc(NC(=O)Nc2ccc3c(c2)C(=O)N(C)[C@H]2CC[C@@H](CC(=O)NCCc4ccccc4)O[C@H]2CO3)c1 | > 10 µM (inactive) |
| CCCNC(=O)N1CC(=O)N2[C@@H](CO)[C@@H](c3ccc(C#CCC4CCCC4)cc3)[C@@H]2C1 | > 10 µM (inactive) |
| CC=Cc1ccc2n(c1=O)C[C@@H]1[C@@H](CO)[C@H](C(=O)NCC)N(C(=O)CC3CC3)[C@H]21 (mixture of isomers) | > 10 µM (inactive) |
| CCCNC(=O)N1[C@H](CO)[C@@H](c2ccccc2-c2ccccc2F)[C@@H]1C#N | > 10 µM (inactive) |
| O=C1CNC[C@@H]2[C@@H](c3ccc(-c4ccccc4F)cc3)[C@@H](CO)N12 | > 10 µM (inactive) |
| CC(C)CC#Cc1ccc([C@H]2[C@@H](CO)N3C(=O)CN(S(=O)(=O)c4cccc(F)c4)C[C@@H]23)cc1 | > 10 µM (inactive) |
| O=S(=O)(Cc1ccccc1)N1[C@H](CO)[C@@H](c2ccccc2)C12CN(CCC(F)(F)F)C2 | > 10 µM (inactive) |
| COCC(=O)N1[C@H](CO)[C@H]2c3ccccc3NC[C@H]21 | > 10 µM (inactive) |
| CCC(=O)N1CC(=O)N2[C@H](CO)[C@H](c3ccc(-c4ccc(C#N)cc4)cc3)[C@H]2C1 | > 10 µM (inactive) |
| CS(=O)(=O)N1CC2(C1)[C@@H](c1ccccc1)[C@@H](CO)N2Cc1ccccn1 | > 10 µM (inactive) |
| C[C@@H](NC(=O)[C@@H]1[C@@H](CO)[C@@H]2Cn3c(ccc(-c4ccncc4)c3=O)[C@@H]2N1C)c1ccccc1 | > 10 µM (inactive) |
| CN1C(=O)c2cc(NS(C)(=O)=O)ccc2OC[C@H]2O[C@@H](CC(=O)NC3CCCCC3)CC[C@H]21 | > 10 µM (inactive) |
| Cc1cccc(S(=O)(=O)N2C[C@@H](O)COC[C@@H]3O[C@H](CC(=O)Nc4ccccc4)CC[C@H]32)c1 | > 10 µM (inactive) |
| O=C1CNC[C@@H]2[C@H](c3ccc(-c4ccccc4F)cc3)[C@@H](CO)N12 | > 10 µM (inactive) |
| CCS(=O)(=O)N1CC(=O)N2[C@H](CO)[C@@H](c3ccc(C#CC4CCCCC4)cc3)[C@H]2C1 | > 10 µM (inactive) |
| C/C=C/c1ccc([C@@H]2[C@@H](CO)N3C(=O)CN(S(=O)(=O)c4ccccc4)C[C@@H]23)cc1 | > 10 µM (inactive) |
| CN1C(=O)c2cc(NS(C)(=O)=O)ccc2OC[C@H]2O[C@H](CC(=O)N3CCOCC3)CC[C@H]21 | > 10 µM (inactive) |
| Cc1cccc(S(=O)(=O)N2C[C@@H](O)COC[C@H]3O[C@@H](CC(=O)Nc4ccccc4)CC[C@@H]32)c1 | > 10 µM (inactive) |
| O=C1CNC[C@H]2[C@@H](c3ccc(-c4ccccc4F)cc3)[C@H](CO)N12 | > 10 µM (inactive) |
| CN(C)CCCNC(=O)C[C@H]1CC[C@H]2[C@@H](COC[C@@H](O)CN2CC2CC2)O1 | > 10 µM (inactive) |
| C/C=C/c1ccc([C@@H]2[C@H](CO)N(C(=O)CN(C)C)C23CN(C(=O)C2CCC2)C3)cc1 | > 10 µM (inactive) |
| O=C(NC1CCCCC1)[C@@H]1N[C@@H]2c3ccc(-c4cccc(F)c4)c(=O)n3C[C@@H]2[C@H]1CO | > 10 µM (inactive) |
| Cc1ccccc1S(=O)(=O)N1CCCCN2[C@H](C1)[C@@H](c1ccc(C#CCN(C)C)cc1)[C@@H]2CO | > 10 µM (inactive) |
| O=C(c1cnccn1)N1CC[C@@H]2[C@H]1c1cc(-c3ccccc3F)ccc1N[C@@H]2CO | > 10 µM (inactive) |

| SMILES | active concentration |
| --- | --- |
| O=C(NCc1cc(F)cc(F)c1)[C@@H]1[C@@H](CO)[C@@H]2Cn3c(cccc3=O)[C@H]1N2 | > 10 µM (inactive) |
| CN1c2ccc(-c3ccccc3F)cc2[C@@H]2[C@@H](CCN2C(=O)Cc2ccccn2)[C@@H]1CO | > 10 µM (inactive) |
| Cc1ccc(-c2ccccc2[C@H]2[C@@H](C#N)N(c3ncc(-c4ccccc4)s3)[C@@H]2CO)cc1 | > 10 µM (inactive) |
| CN(C)CC(=O)N1C[C@@H]2[C@H](c3ccccc31)[C@H](CO)N2Cc1cc(F)ccc1F | > 10 µM (inactive) |
| C[C@H](NC(=O)[C@@H]1[C@@H](CO)[C@@H]2Cn3c(cccc3=O)[C@H]1N2CCC(F)(F)F)c1ccccc1 | > 10 µM (inactive) |
| N#C[C@@H]1[C@@H](c2ccccc2-c2cccc(F)c2)[C@@H](CO)N1C(=O)CN1CCOCC1 | > 10 µM (inactive) |
| O=C(Nc1ccc(F)cc1)N1CC(=O)N2[C@H](CO)[C@H](c3ccc(C#Cc4cccnc4)cc3)[C@@H]2C1 | > 10 µM (inactive) |
| O=C([C@H]1[C@H](CO)[C@H]2Cn3c(cccc3=O)[C@@H]1N2Cc1cocn1)N1CCCCC1 | > 10 µM (inactive) |
| CC(=O)N1CC[C@@H]2[C@@H](CO)Nc3ccc(C#Cc4cccnc4)cc3[C@@H]21 | > 10 µM (inactive) |
| CCS(=O)(=O)Nc1ccc2c(c1)C(=O)N(C)[C@H]1CC[C@H](CC(=O)N[C@@H]3CCN(Cc4ccccc4)C3)O[C@@H]1CO2 | > 10 µM (inactive) |
| COC(=O)C[C@H]1CC[C@@H]2[C@H](COc3ccc(NS(=O)(=O)c4ccccc4Cl)cc3C(=O)N2C)O1 | > 10 µM (inactive) |
| O=C(c1cccc(F)c1)N1CCCCN2[C@H](CO)[C@H](c3ccc(C#CC4(O)CCCC4)cc3)[C@H]2C1 | > 10 µM (inactive) |
| O=C(c1ccc2c(c1)OCO2)N1C[C@@H]2[C@H](c3ccccc31)[C@H](CO)N2C(=O)CC1CC1 | > 10 µM (inactive) |
| O=C(C[C@H]1CC[C@H]2[C@@H](COC[C@@H](O)CN2Cc2ccc(Cl)cc2)O1)NCc1ccccc1Cl | > 10 µM (inactive) |
| CC(C)NC(=O)N1[C@@H]2CN(C)c3ccccc3[C@@H]2[C@@H]1CO | > 10 µM (inactive) |
| CN1c2ccc(-c3cccc(F)c3)cc2[C@@H]2[C@@H](CCN2C(=O)c2ccccc2F)[C@@H]1CO | > 10 µM (inactive) |
| O=C(C[C@@H]1CC[C@H]2[C@@H](COC[C@H](O)CN2Cc2cccc(F)c2)O1)NCc1cccc(F)c1 | > 10 µM (inactive) |
| N#C[C@@H]1[C@H](c2ccccc2-c2ccc(F)cc2)[C@H](CO)N1C(=O)Cc1cccnc1 | > 10 µM (inactive) |
| O=C(C[C@@H]1CC[C@H]2[C@@H](COC[C@@H](O)CN2C(=O)Nc2cc(Cl)cc(Cl)c2)O1)NCC1CCCCC1 | > 10 µM (inactive) |
| Cc1cccc(S(=O)(=O)N2CC[C@H]3[C@@H](CO)N(C)c4ccc(-c5ccccc5F)cc4[C@H]32)c1 | > 10 µM (inactive) |
| O=C(C[C@@H]1CC[C@H]2[C@@H](COC[C@H](O)CN2S(=O)(=O)c2cccc(F)c2)O1)Nc1ccc(-c2ccccc2)cc1 | > 10 µM (inactive) |
| O=C(CC1CC1)N1CC(=O)N2[C@H](CO)[C@H](c3ccc(/C=C/c4ccccc4)cc3)[C@@H]2C1 | > 10 µM (inactive) |
| COc1cccc(NC(=O)N2C[C@@H](O)COC[C@H]3O[C@@H](CC(=O)NC4CCC4)CC[C@@H]32)c1 | > 10 µM (inactive) |
| O=C(Cc1ccccn1)N1[C@H](CO)[C@H]2c3ccccc3NC[C@H]21 | > 10 µM (inactive) |

| SMILES | active concentration |
| --- | --- |
| CCS(=O)(=O)N1CCC2(CC1)CN(C(=O)Nc1c(C)noc1C)[C@H](CO)c1c2c2ccc(OC)cc2n1C | > 10 µM (inactive) |
| CC=Cc1ccc2n(c1=O)C[C@@H]1[C@@H](CO)[C@H](C(=O)N3CCc4ccccc4C3)N(C(=O)C3CC3)[C@H]21 (mixture of isomers) | > 10 µM (inactive) |
| CC(C)NC(=O)Nc1ccc2c(c1)C(=O)N(C)[C@@H]1CC[C@@H](CC(=O)NCc3ccc(F)cc3)O[C@H]1CO2 | > 10 µM (inactive) |
| N#C[C@@H]1[C@H](c2ccccc2-c2ccccc2)[C@@H](CO)N1C(=O)Cc1ccncc1 | > 10 µM (inactive) |
| COc1ccc(NC(=O)N2CC(=O)N3[C@H](CO)[C@@H](c4ccc(Br)cc4)[C@@H]3C2)cc1 | > 10 µM (inactive) |
| CCCNC(=O)N1[C@H](C#N)[C@H](c2ccccc2-c2ccc(C)cc2)[C@@H]1CO | > 10 µM (inactive) |
| O=C(C[C@@H]1CC[C@@H]2[C@H](COC[C@H](O)CN2CCC(F)(F)F)O1)NCC1CC1 | > 10 µM (inactive) |
| Cc1ccccc1-c1ccccc1[C@@H]1[C@H](C#N)N(C(=O)c2cccc(F)c2)[C@H]1CO | > 10 µM (inactive) |
| C/C=C/c1ccc([C@H]2[C@H]3CN(S(=O)(=O)c4ccccc4)CC(=O)N3[C@H]2CO)cc1 | > 10 µM (inactive) |
| CCC(=O)N1CC(=O)N2[C@H](C1)[C@@H](c1ccc(-c3ccc(C#N)cc3)cc1)[C@@H]2CO | > 10 µM (inactive) |
| O=C(C[C@@H]1CC[C@H]2[C@@H](COC[C@@H](O)CN2CC2CC2)O1)NCc1ccc(Cl)cc1 | > 10 µM (inactive) |
| O=C(C[C@@H]1CC[C@@H]2[C@H](COC[C@@H](O)CN2C(=O)C2CC2)O1)NCc1ccncc1 | > 10 µM (inactive) |
| O=C(c1cccc(F)c1)N1C[C@@H]2[C@H](c3ccccc31)[C@@H](CO)N2C(=O)C1CCOCC1 | > 10 µM (inactive) |
| CCNC(=O)Nc1ccc2c(c1)C(=O)N(C)[C@H]1CC[C@H](CC(=O)N[C@@H](C)c3ccccc3)O[C@H]1CO2 | > 10 µM (inactive) |
| COCC#Cc1ccc([C@@H]2[C@H](CO)N3C(=O)CN(C(=O)Nc4ccccc4F)C[C@@H]23)cc1 | > 10 µM (inactive) |
| CN1C[C@@H]2[C@H](c3ccccc31)[C@@H](CO)N2C(=O)Nc1cccc(F)c1 | > 10 µM (inactive) |
| CCS(=O)(=O)Nc1ccc2c(c1)C(=O)N(C)[C@H]1CC[C@@H](CC(=O)NCCOC)O[C@H]1CO2 | > 10 µM (inactive) |
| O=C(CC(F)(F)F)N1C[C@@H]2[C@H](c3ccccc31)[C@H](CO)N2CC1CCOCC1 | > 10 µM (inactive) |
| O=C(NC1CCCC1)N1CCCCN2[C@H](CO)[C@H](c3ccc(-c4cccnc4)cc3)[C@H]2C1 | > 10 µM (inactive) |
| CC(C)CC#Cc1ccc([C@@H]2[C@H]3CN(C(=O)c4ccccn4)CC(=O)N3[C@H]2CO)cc1 | > 10 µM (inactive) |
| O=C(Nc1ccccc1F)N1CC(=O)N2[C@H](CO)[C@@H](c3ccc(-c4cccnc4)cc3)[C@@H]2C1 | > 10 µM (inactive) |
| CCCNC(=O)N1CC(=O)N2[C@H](C1)[C@H](c1ccc(-c3ccc(F)cc3)cc1)[C@@H]2CO | > 10 µM (inactive) |
